Assays:
[1] = Mutant factor against mu-[K303E] with Opioid receptor kappa 1 for binding affinity
[2] = Mutant factor of the compound against mu-[K303E] with Opioid receptor kappa 1 for binding affinity

Row | SMILES | Ki [1] | Ki [2]
1 | Oc1ccc2c3c1O[C@H]1c4[nH]c5c(c4C[C@@]4(O)[C@@H](C2)N(CC2CC2)CC[C@]314)C[C@@]1(O)[C@H]2Cc3ccc(O)c4c3[C@@]1(CCN2CC1CC1)[C@H]5O4 [C18130] | 0.77 nM | 
2 | N#CN=C(N)Nc1ccc2[nH]c3c(c2c1)C[C@@]1(O)C2Cc4ccc(O)c5c4[C@@]1(CCN2CC1CC1)[C@H]3O5 [5'-[N-(N'-Cyano)guanidinyl]-17-cyclopropylmethyl-6,7-didehydro-4,5alpha-epoxy-3,14-dihydroxyindolo[2',3':6,7]morphinan] | 0.29 nM | 
3 | NC(N)=Nc1ccc2[nH]c3c(c2c1)C[C@@]1(O)[C@H]2Cc4ccc(O)c5c4[C@@]1(CCN2CC1CC1)[C@H]3O5 |  | 0.06 nM
